Test results as given in patent US12473263B2, “Bicyclic inhibitors of CBX chromodomains” (Icahn School of Medicine At Mount Sinai, priority 2019, dated 2025).
Blank lines part the entries; values can stand above or below the molecule they belong to.

Tests used:
PC3 cells = test: MTT assay for cell viability; format: cell-based; settings: doses of 0, 1, 2.5, 3.75, 5.0, 8.0 micromolar
Method: The MTT assay is used to measure cellular metabolic activity as an indicator of cell viability, proliferation and cytotoxicity. This colorimetric assay is based on the reduction of a yellow tetrazolium salt (3-(4,5-dimethylthiazol-2-yl)-2,5-diphenyltetrazolium bromide or MTT) to purple formazan crystals by metabolically active cells. The viable cells contain NAD(P)H-dependent oxidoreductase enzymes which reduce the MTT to formazan. The insoluble formazan crystals are dissolved using 1-Propanol as a solubilization solution and the resulting purple colored solution is quantified by measuring absorbance at 570 nanometers (nm) using a multi-well spectrophotometer.
Protocol for MTT Assay: 100,000 PC3 cells were seeded per-well (CRL-1435, ATCC) for each dose of treatment 24 hours before treatment. Cells were quantitated with Countess II Cell Counter (AMQAX1000, Thermofisher Scientific). Cells were maintained at 37° C. with 5% CO2. SMAPs (dissolved in DMSO) were diluted to a stock concentration of 10 mM. Dilutions to the needed concentrations were made in DMEM (SH30022FS, Hyclone, GE Healthcare Life Sciences). Cells were treated with appropriate concentrations of compound. After 24 hours, MTT solution (M5655-1G, Sigma-Aldrich) was added to cells. Formazan crystals of metabolically active cells were dissolved with 1-Propanol (A414-500, ThermoFisher Scientific) and the solution was measured by absorbance at 570 nm (SpectraMax M5e, Molecular Devices).
Examples 1-3, 7-31, and 33-41 have also been studied in the above-described MTT assay for cell viability at four dose treatments (0, 2.5, 5.0, 10.0 micromolar).

[1] = molecular target: (Homo sapiens, UniProt O95931); test: Fluorescence anisotropy (FP) competition binding assay; settings: 10 nM FAM-ANRIL as probe
(Homo sapiens, UniProt O95931), sequence (O95931 whole entry, looked up): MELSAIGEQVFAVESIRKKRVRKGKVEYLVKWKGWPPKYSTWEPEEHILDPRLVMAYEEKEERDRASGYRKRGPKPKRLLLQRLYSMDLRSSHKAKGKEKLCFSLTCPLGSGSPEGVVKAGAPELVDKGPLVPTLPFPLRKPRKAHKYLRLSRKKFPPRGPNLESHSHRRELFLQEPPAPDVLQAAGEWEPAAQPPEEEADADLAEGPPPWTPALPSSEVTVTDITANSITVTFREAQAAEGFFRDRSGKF
Method: Fluorescence Anisotropy Binding Assay
Expression and purification of the first bromodomain (BrD1) of human BRD4 in poly-His tag form was performed using a procedure described in the literature [See Zeng et al. Structure 16, 643-652 (2008) and Zhang et al., J Biol Chem 287, 28840-28851 (2012).] The protein was purified by using affinity chromatography on a nickel-IDA column (Invitrogen), followed by the removal of poly-His tag by thrombin cleavage.
Measurements were obtained after 1 hour incubation of the fluorescent ligand and the protein at 25° C. with Safire 2 microplate reader (Tecan). In the assay, fluorescent ligand concentration was ≤2Kd, and protein concentration was set at which 50-80% of fluorescent ligand is bound. Dissociation constant of a competing ligand was calculated with the correction to Cheng-Prussoff equation introduced by Nicolovska-Coleska and colleagues [Nikolovska-Coleska, Z. et al., Anal Biochem 332, 261-273 (2004). Assuming one-site competitive binding model, the equation used to calculate K1's from IC50 values recovered from fitting data using Prism:
where [I50] is the concentration of free inhibitor at 50% inhibition, [L50], the concentration of free labeled ligand at 50% inhibition, and [P0], concentration of free protein at 0% inhibition. Note that Kd for each protein-probe pair is the limit of resolvable K1 in a competition assay.

CBX7ChD = CBX7ChD (Homo sapiens (Human), UniProt O95931); settings: cited from earlier work
CBX7ChD, sequence (O95931 11-69): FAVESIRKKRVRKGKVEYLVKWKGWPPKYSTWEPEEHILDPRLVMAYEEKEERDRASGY

[2] = tested on: p16INK4a in prostate cancer cells; settings: cited from earlier work
[3] = Homo sapiens, PC-3, 24 hours treatment

IC50 (PC3 cells; [3]): 884 nM
Compound: Cc1ccccc1Cn1c(=N)n(CC(O)c2ccc(Cl)c(Cl)c2)c2ccc(F)cc21 (stereo not drawn) [Example 2, 1-(3,4-dichlorophenyl)-2-(5-fluoro-2-imino-3-(2-methylbenzyl)-2,3-dihydro-1H-benzo[d]imidazol-1-yl)ethan-1-ol]

IC50 (PC3 cells; [3]): 776 nM
Compound: Cc1ccccc1Cn1c(=N)n(CC(O)c2ccc(Cl)c(Cl)c2)c2ccc(Cl)cc21 (stereo not drawn) [Example 3, 2-(5-chloro-2-imino-3-(2-methylbenzyl)-2,3-dihydro-1H-benzo[d]imidazol-1-yl)-1-(3,4-dichlorophenyl)ethan-1-ol]

Compound: C#CCn1c(=N)n(CC(O)c2ccc(Cl)c(Cl)c2)c2ccccc21 (stereo not drawn) [Example 6, 1-(3,4-dichlorophenyl)-2-(2-imino-3-(prop-2-yn-1-yl)-2,3-dihydro-1H-benzo[d]imidazol-1-yl)ethan-1-ol]
Kd [1]: 1.53 µM

Compound: Cc1ccc(Cn2cc(Cn3c(=N)n(CC(O)c4ccc(Cl)c(Cl)c4)c4ccccc43)nn2)cc1 (stereo not drawn) [Example 9, 1-(3,4-dichlorophenyl)-2-(2-imino-3-((1-(4-methylbenzyl)-1H-1,2,3-triazol-4-yl)methyl)-2,3-dihydro-1H-benzo[d]imidazol-1-yl)ethan-1-ol]
IC50 (PC3 cells; 24 hours treatment): 900 nM
Kd [1]: 0.108 µM

IC50 (PC3 cells; [3]): 1840 nM
Compound: N=c1n(Cc2cn(Cc3ccccc3F)nn2)c2ccccc2n1CC(O)c1ccc(Cl)c(Cl)c1 (stereo not drawn) [Example 10, 1-(3,4-dichlorophenyl)-2-(3-((1-(2-fluorobenzyl)-1H-1,2,3-triazol-4-yl)methyl)-2-imino-2,3-dihydro-1H-benzo[d]imidazol-1-yl)ethan-1-ol]

IC50 (PC3 cells; [3]): 1120 nM
Compound: N=c1n(Cc2cn(-c3ccccc3)nn2)c2cc(Cl)ccc2n1CC(O)c1ccc(Cl)c(Cl)c1 (stereo not drawn) [Example 35, 2-(5-chloro-2-imino-3-((1-phenyl-1H-1,2,3-triazol-4-yl)methyl)-2,3-dihydro-1H-benzo[d]imidazol-1-yl)-1-(3,4-dichlorophenyl)ethanol]

Compound: Cc1ccccc1Cn1c(=N)n(CC(O)c2ccc(Cl)c(Cl)c2)c2ccccc21.Cl (stereo not drawn) [MS351]
selectivity for CBX7ChD (over CBX2/4/6/8) (CBX7ChD): selective for CBX7ChD
de-repression of p16INK4a [2]: de-repress
